{"source": "patent US20260306421A1", "about": "“SYSTEMS AND METHODS FOR TRANSDERMAN PATCH DELIVERY” (VITAMAX PATCH WHOLESALER LLC, priority 2022, published 2026)", "key": {"[1]": {"assay": "Release of cholecalciferol phosphate disodium solutions through synthetic membrane", "type": "in vitro ADME", "experimental": "Preliminary studies were conducted to determine the best synthetic membrane for the patch release using the Franz diffusion cells. Regenerated cellulose (12-14 k molecular weight cut-off Medicell International UK) was compared to nylon (0.20 μm, Whatman, UK) using a range of donor and receiver solutions. The regenerated cellulose membrane was heated to 60° C. for 30 minutes after which the double layer of polymer (it is supplied as a dialysis membrane) was separated and mounted onto the Franz cell (FIG. 3) by sealing between the two compartments using parafilm, and 12 mm magnetic stirrers were placed into the receiver compartment. The receiver compartment was filled with either 50:50 PG:mobile phase (90:10 methanol:water pH 3.2), or 80:20 PG:distilled water, or 75 mM pH 7 saline. The cell sealing was confirmed by cell inversion and monitoring solvent back diffusion. […] The temperature of the Franz diffusion was maintained at 37° C. in a water bath, to set up the membrane temperature to 32° C. […] The 1 ml receiver fluid samples were collected and analysed by HPLC methods at different time intervals. […]"}, "[2]": {"assay": "Cholecalciferol phosphate adhesive suitability / compatibility screen", "type": "physicochemical", "experimental": "Pre-formulation studies were performed to determine the compatibility of cholecalciferol phosphate (disodium and acid forms) with a range of adhesives (Table 38) that could be used to manufacture of the patch. The compatibility of the drugs with the patch excipients was assessed through checking the clarity of the mixture.\nThe compatibility of the adhesive with solvents and drug was established. The maximum drug loading in the adhesive following solvent evaporation was determined by mixing the drug, adhesive and co-solvents until a clear solution is obtained at different drug:adhesive ratios by placing a drop of solution onto patch backing sheet, leaving the slide to dry for 3-4 hours and examining the formed fil on the surface of the backings for evidence of drug crystals were assessed using KKmoon digital magnifier with LED light (China). Following patch optimization, the drug-adhesive solution was cast as 10×10 cm squares using of backing (3M™ Scotchpak™ Polyester Backing Film Laminate 9730). A sufficient volume of the adhesive was applied to achieve a target coating of 8 mg/cm^2. Following complete drying of the solvents, the adhesive layer was covered by M3 Release liner (SCOTCHPAK 9755), compressed, and then cut using 34 mm circular manual die cutter (SCP Super Cutting Press)."}, "[3]": {"assay": "Franz cell porcine skin permeation and deposition of cholecalciferol and cholecalciferol phosphate disodium from PG solutions", "type": "in vitro ADME", "experimental": "In order to assess the effect of adding phosphate to vitamin D chemical structure on the penetration of vitamin D through the skin porcine skin permeation studies were performed. Using the data from the pre-formulation studies solutions of cholecalciferol and cholecalciferol phosphate disodium, were prepared. […] The developed HPLC methods were used for quantification.\nTo study if the addition of the phosphate to cholecalciferol facilitated enhanced transdermal permeation, donor solutions were prepared by adding 2.5 mg/mL of cholecalciferol or cholecalciferol phosphate disodium in 100% PG. […] After 24 h, the receiver fluid was collected and analysed by HPLC methods. […]\nFollowing homogenising solution with epidermis and dermis for 1 min by Ultra Turrax, solutions were filtered through 0.2 μm syringe filters of each bottle was collected and analysed by the HPLC method. The amount of cholecalciferol and cholecalciferol phosphate disodium on the surface of the skin, deposited in the SC, epidermis, dermis, and passed into the receiver fluid was determined. The percentage of mass recovery per cm^2 of skin was calculated, and the drug deposition profile could be obtained."}}, "data": [{"substance": "cholecalciferol phosphate disodium", "values": [{"measurement": "release through regenerated cellulose membrane", "setting": "[1]; PG donor, 50:50 PG:MP (90:10 methanol:water pH 3.2) receiver", "result": "22.0±4.6", "unit": "%"}, {"measurement": "release through regenerated cellulose membrane", "setting": "[1]; saline donor, saline receiver", "result": "3.0±0.7", "unit": "%"}, {"measurement": "compatibility with DURO-TAK 87-2516", "setting": "[2]", "result": "compatible"}, {"measurement": "compatibility with DURO-TAK 87-9301", "setting": "[2]", "result": "did not show compatibility"}, {"measurement": "miscibility with Oppanol B12 and Oppanol N100", "setting": "[2]", "result": "did not show acceptable miscibility"}, {"measurement": "highest active loading without any crystallization", "setting": "[2]; DURO-TAK 87-2516", "result": 0.6, "unit": "mg/mL"}, {"measurement": "Solubility", "setting": "[2]; DURO-TAK 87-2516 93.2 μL, 10% w/v drug, 1.4 mL methanol, 2.75 mL ethyl acetate, 2 μL PG, 150 μL water", "result": "Clear"}, {"measurement": "Solubility", "setting": "[2]; DURO-TAK 87-2516 100 μL, 10% w/v drug, 0.5 mL methanol, 0.5-1.5 mL ethyl acetate, 2 μL PG, no water", "result": "Not clear"}, {"measurement": "Solubility", "setting": "[2]; DURO-TAK 87-2516 180 μL, 5% drug, 1.4 mL methanol, 2.5 mL ethyl acetate, 4 μL PG, 150 μL water", "result": "Clear"}, {"measurement": "Solubility", "setting": "[2]; DURO-TAK 87-2516 200 μL, 3% drug, 0.9 mL methanol, 2 mL ethyl acetate, 40 μL PG, 100 μL water", "result": "Clear"}, {"measurement": "Solubility", "setting": "[2]; DURO-TAK 87-9301 suitability screen, 4 mg drug, 0.2 mL adhesive, 1-4 mL ethyl acetate, 60 μL PG", "result": "Opaque"}, {"measurement": "Solubility", "setting": "[2]; DURO-TAK 87-9301 suitability screen, 4 mg drug, no adhesive, 4 mL methanol, 40 μL PG", "result": "Clear"}, {"measurement": "deposition compared with cholecalciferol in each skin layer", "setting": "[3]; p<0.05, ANOVA", "result": "significantly higher"}, {"measurement": "vitamin D delivered into the skin compared to cholecalciferol", "setting": "[3]; propylene glycol solution", "result": 5, "unit": "times"}]}]}
